From patent publication US20230348419A1, “BIAMINOQUINOLINES AND NANOFORMULATIONS FOR CANCER TREATMENT” (The Regents of the University of California, priority 2019, published 2023)
Like-named read-outs stand apart in the source and are kept apart here.

Columns and labels:
[1] = Drug loading using BAQ13 NPs; assay type: physicochemical; details: for PDI / Size/diameter: BAQ13 NPs loaded with the drug or dye; for Encapsulation efficiency / Drug-loading content: drug or dye loaded in BAQ13 NPs; for Drug-loading content: mass ratio
Protocol: Preparation and characterization of BAQ ONNs. NPs were prepared through the re-precipitation method. BAQ derivatives in methanol were added dropwise into MilliQ water while stirring for 5 min (volume ratio, 1:10), and then homogenous NPs were obtained after rotary evaporation (40° C., 20 min), followed by the characterization with Zetasizer Nano ZS (Malvern). The TEM samples were prepared by dropping 0.5 mM NPs on carbon square mesh and dried naturally, which were then observed under the Talos L120C TEM (FEI) at an accelerating voltage of 80 kV. To determine the drug content in nanoformulations, the prepared drug-loaded NPs were cut off by centrifugal filter (ultracel-10 kDa, Millipore), and the absorbance of filtrate (diluted with DMSO, 1:10, volume ratio) was measured for calculation of drug concentrations.
Next investigation was whether liposome-like BAQ ONNs can encapsulate additional agents. Upon nanoprecipitation of BAQ13 and various agents, homogeneous NPs with monomodal size distributions spontaneously formed (Table 2 and FIG. 9G).

[2] = In vivo pharmacokinetic study; design: species or system Sprague-Dawley rats; details: rats, iv, DiD 0.5 mg kg^−1, plasma DiD fluorescence
Protocol: In vivo pharmacokinetic study. The jugular vein of female Sprague-Dawley rats (200-250 g) was implanted with a catheter for drug injection and blood collection (Harland, Indianapolis, IN, USA). Rats (n=3) were injected with free DiD, BAQ12 NPs@DiD (10:1, mass ratio) and BAQ13 NPs@DiD (10:1, mass ratio), respectively, which contained an equivalent dose of DiD (0.5 mg kg^−1). Blood samples were collected at the indicated time points and then were centrifuged to obtain the plasma. The plasma was diluted with DMSO (1:100), and the fluorescence intensity (λEx=595 nm, λEm=665 nm) was measured by a microplate reader (SpectraMax M2).

HT29 tumours [3] = experiment: In/ex vivo biodistribution, HT29 model; design: species or system nude mice; details: in vivo and ex vivo imaging, 12 h and 24 h post-injection
Protocol: In/ex vivo biodistribution. Nude mice bearing the HT29 tumours were subjected to iv administration of BAQ13 NPs@DiD (10:1, mass ratio) at a dose of 1.0 mg kg^−1 DiD. In vivo imaging studies were performed at the corresponding time point. Organs (brain, heart, lung, liver, spleen, kidney, intestines, and muscle) and tumours were collected from mice for ex vivo imaging. Biodistribution of BAQ13 NPs@ NAPA+DiD (10/2.5/1.0 mg kg^−1, iv) was studied on NRG mice bearing PCSC tumours. Both in vivo and ex vivo imaging studies were performed as above.

In vivo toxicity studies = experiment: In vivo toxicity studies; design: species or system FVB/N mice; details: 10 mg kg^−1, iv
Protocol: In vivo toxicity studies. The toxicity of BAQ NPs was investigated on female FVB/N mice via iv injection. Mice were administrated with various concentrations (10 mg kg^−1, 20 mg kg^−1 or 40 mg kg^−1) of Lys05, Liposomes@Lys05, BAQ12 NPs, and BAQ13 NPs every two days. The status of mice was monitored every day and their body weight was recorded every two days. Blood samples were collected and sent to the UCD Comparative Pathology Laboratory for tests of complete blood count (CBC) and serum chemistry.

[4] = Titration with hydrochloric acid (pH buffering capacity); assay type: physicochemical; details: 1 mM, 0.1 M HCl
HT29 tumours [5] = experiment: HT29 xenograft model; details: mice bearing HT29 tumours, treatment terminated on the 24th day
Protocol: Animal model. To establish the subcutaneous xenograft models, 5×10^6 of MIA PaCa-2 cells, 2×10^6 of HT29 cells or 2×10^4 PCSCs suspended with Matrigel (Corning) and PBS mixture (1:1, volume ratio) were injected subcutaneously into the right flank of nude mice or NRG mice, respectively.
In vivo treatment schedule. The NRG mice bearing MIA PaCa-2 xenograft tumours (˜100 mm^3) were randomized into 5 groups (n=6), and then were subjected to iv injection every three days as indicated. […] The treatment on HT29 model was stopped on Day 24, and then the mice survival in each group was recorded, in which the mouse with a tumour larger than 1,000 mm^3 was considered dead. […] The tumour volume and body weight were recorded before drug administration every time. At the end of the treatment, mice were sacrificed and the tumours were collected for further analysis.

MIA PaCa-2 = experiment: MTS cell viability assay; assay type: cell-based, human; details: 24 h; read-out: IC50 (μM) in the 24 h treatment MIA PaCa-2
Protocol: (§1) Cell line and cell culture. The human pancreatic cancer cell lines (MIA PaCa-2, BXPC3, and PANC-1) were originally purchased from ATCC and were kindly provided by Dr. Shiro Urayama's Lab. HT29, HCT116, H460, MCF7, NIH/3T3, and IMR-90 cell lines were purchased from ATCC. Bone marrow cells were collected from the leg bone marrows of FVB/N mice. All the cells were cultured at 37° C. in a humidified atmosphere of 5% CO2/95% air using the corresponding medium supplemented with 10% fetal bovine serum, […] according to ATCC protocol. All the cell lines have been tested for mycoplasma contamination routinely.
(§2) Cell viability, cell growth and colony formation. Cell viability was assessed by the MTS assay. Briefly, cells in 96-well plates (4,000 cell per well) were treated as indicated, followed by the incubation with MTS regents for 4 h. OD values (490 nm) were determined via a microplate reader. Results were shown as the average cell viability calculated from the formula of [(ODtreat−ODblank)/(ODcontrol−ODblank)×100%]. Drug combination data were analyzed by Combenefit 2.02. In cell growth assay, cells in 6-well plates (50,000 cell per well) were treated as indicated and were counted manually every 24 h. Colony formation assay was also performed on 6-well plates with a starting density of 1,000-2,000 cells per well. After incubated as indicated for 10-20 days, cells were washed with PBS and stained with the solution of crystal violet and methanol for 20 min.

PANC-1 = experiment: MTS cell viability assay; assay type: cell-based, human
Protocol: as §1, §2

BXPC-3 = experiment: MTS cell viability assay; assay type: cell-based, human
Protocol: as §1, §2

Red blood cells = experiment: pH-dependent haemolysis test; assay type: cell-based; details: whole pH range, same concentration (50 μM, 4 h)
Protocol: After centrifugation at 500×g for 5 min, the extent of haemolysis was spectrophotometrically determined according to the amount of haemoglobin in supernatants (540 nm). The haemolysis assay was used to assess the pH-dependent detergence ability and toxicity of NPs.

MIA PaCa-2 cells = experiment: RNA sequencing, differentially expressed genes; assay type: cell-based, human; details: 5 μM, 24 h, vs vehicle
Protocol: RNA-seq. Total RNA was extracted by the RNeasy Mini Kit (Qiagen, Germany) from the treated MIA PaCa-2 cells (5 μM, 24 h). Samples were submitted to the UC Davis Comprehensive Cancer Center's Genomics Shared Resource (GSR) for RNA-Seq analysis. Stranded RNA-Seq libraries were prepared from 100 ng total RNA using the NEBNext Ultra Directional RNA Library Prep Kit (New England BioLabs). Subsequently, libraries were combined for multiplex sequencing on an Illumina HiSeq 4000 System (2×150 bp, paired-end, >20×10^6 reads per sample). The data of normalized genes read counts were analyzed using fold change and t test. The Differentially expressed genes (DEGs) were collected for the signaling pathways enrichment by Funrich software 3.1.3. The gene sets were from MSigDB database (Broad Institute). GSEA was performed using GSEA version 3.0 in KEGG gene sets category online, with the following parameters: n=1,000 permutations, where p-adjust <0.05, and FDR <0.05 were considered significant.

Bone marrow cells = experiment: MTS cell viability assay; assay type: cell-based, FVB/N mice; details: 48 h, non-cancerous cells; read-out: IC50 values from the 48 h MTS assay (μM) Bone marrow
Protocol: as §1
as §2, with “After incubated as indicated for 10-20 days, cells were washed with PBS and stained with the solution of crystal violet and methanol for 20 min.” left out

MCF-7 = experiment: MTS cell viability assay; assay type: cell-based; details: 24 h; read-out: IC50 (μM) in the 24 h treatment MCF-7
Protocol: as §1, §2

HCT116 = experiment: MTS cell viability assay; assay type: cell-based; details: 48 h; read-out: IC50 values from the 48 h MTS assay (μM) HCT116
Protocol: as §1, §2

HT29 = experiment: MTS cell viability assay; assay type: cell-based; details: 24 h; read-out: IC50 (μM) in the 24 h treatment HT29
Protocol: as §1, §2

IMR-90 = experiment: MTS cell viability assay; assay type: cell-based; details: 48 h, non-cancerous cells; read-out: IC50 values from the 48 h MTS assay (μM) IMR-90
Protocol: as §1, §2

NIH/3T3 = experiment: MTS cell viability assay; assay type: cell-based; details: 48 h, non-cancerous cells; read-out: IC50 values from the 48 h MTS assay (μM) NIH/3T3
Protocol: as §1, §2

H460 = experiment: MTS cell viability assay; assay type: cell-based; details: 24 h; read-out: IC50 (μM) in the 24 h treatment H460
Protocol: as §1, §2

MIA PaCa-2 tumours = experiment: MIA PaCa-2 xenograft model; assay type: in vivo, NRG mice; details: 20 mg kg^−1 every three days
Protocol: (§3) In vivo treatment schedule.
Antitumour effect as single agents in mice. After proving the safety of BAQ ONNs, the NPs for anticancer efficacy was evaluated in a pancreatic xenograft model of MIA PaCa-2 cells. NRG mice with MIA PaCa-2 tumours (˜100 mm^3) were randomly assigned into five groups (n=6): the saline (iv) group, the Lys05 (ip) group, the liposomes@Lys05 (iv) group, the BAQ12 NPs (iv) group and the BAQ13 NPs (iv) group. The mice were then treated every three days at a dose of 20 mg kg^−1. […] These findings clearly illustrate the potential advantages of BAQ ONNs with regard to both drug discovery and drug delivery.

OSC-3 cells = experiment: PBC NPs in OSC-3 cells (lysosomes, apoptosis, photodynamic therapy); assay type: cell-based; details: LC3-GFP-RFP imaging and immunoblotting
PCSC tumours = experiment: PCSC xenograft model; assay type: in vivo, NRG mice; details: combination therapy study, every three days
Text: as §3

[6] = test system: autophagy (LC3B-II, SQSTM1/p62) in MIA PaCa-2 cells; experiment: Autophagy inhibition (immunoblot, LC3B-GFP imaging, TEM); assay type: cell-based, human; details: western blotting, compared to untreated and Lys05-treated cells
Protocol: LC3B-GFP imaging. Cells in a 96-well plate (5,000 cell per well) were transfected by the autophagy sensor LC3B-GFP (Thermo Fisher) for 12 h. After treated as indicated for 4 h, cells were visualized by a fluorescence microscope (Olympus). The puncta per well were quantified using ImageJ 1.51s.
Western Blot. The cell or tumour samples were lysed with RIPA Buffer (Thermo Fisher). After centrifugation at 4° C. (15 min, 12,000×g), the concentrations of proteins in supernatant and determined by Bradford Protein Assay dye (Bio-Rad). Immunoblotting was performed routinely and were developed using a ChemiDoc™ MP imaging system.
TEM of cells and tumour tissue. MIA PaCa-2 cells in 8-well slide plates (30,000 cell per well, Lab-Tek) were treated as indicated for 48 h. The freshly harvested tumours were cut into 1 mm^3 pieces. Samples were fixed with the 0.1 M cacodylate buffer containing 2.5% glutaraldehyde plus 2% paraformaldehyde, and transferred onto carbon square mesh, followed by observation under Talos L120C TEM.

Molecule: CCCCCCCCCCCCCCCCCCN1C(=CC=CC=CC2=[N+](CCCCCCCCCCCCCCCCCC)c3ccccc3C2(C)C)C(C)(C)c2ccccc21.[O-][Cl+3]([O-])([O-])[O-] [Free DiD, 1,1′-dioctadecyl-3,3,3′,3′-tetramethylindodicarbocyanine perchlorate]
- PDI [1]: 0.1
- Size/diameter [1]: 120 nm
- Encapsulation efficiency [1]: 100%
- Drug-loading content [1]: 50%
- T1/2 [2]: 48 min
- biodistribution of fluorescence signals (HT29 tumours [3]): high signals in the lungs, rather than in the tumour sites

Molecule: CN(CCNc1ccnc2cc(Cl)ccc12)CCNc1ccnc2cc(Cl)ccc12 [Lys05]
- mortality after iv administration (In vivo toxicity studies): acute death of mice
- pH plateau upon titration with HCl [4]: 7.2
- Median Survival (HT29 tumours [5]): 28 days
- IC50 (MIA PaCa-2): 16.7 ± 4.7 µM
- IC50 (PANC-1; 24 h, read-out: IC50 (μM) in the 24 h treatment PANC-1): 13.3 ± 2 µM
- IC50 (PANC-1; 48 h, read-out: IC50 values from the 48 h MTS assay (μM) PANC-1): 10.8 ± 0.9 µM
- IC50 (BXPC-3; 24 h, read-out: IC50 (μM) in the 24 h treatment BXPC-3): 7.8 ± 0.9 µM
- IC50 (BXPC-3; 48 h, read-out: IC50 values from the 48 h MTS assay (μM) BXPC-3): 11.1 ± 1.7 µM
- haemolytic response to pH (Red blood cells): did not elicit observable haemolysis
- downregulated genes (MIA PaCa-2 cells): 103
- upregulated genes (MIA PaCa-2 cells): 62
- differentially expressed genes (DEGs) (MIA PaCa-2 cells; fold change≥2 and p value≤0.05): 165
- IC50 (Bone marrow cells): 14 ± 1.1 µM
- IC50 (MCF-7): 12.3 ± 0.7 µM
- IC50 (HCT116): 8 ± 0.7 µM
- IC50 (HT29): 10.6 ± 3.4 µM
- IC50 (IMR-90): 15.5 ± 2.5 µM
- IC50 (NIH/3T3): 12.6 ± 0.9 µM
- IC50 (H460): 11.1 ± 0.6 µM
- tumour growth (MIA PaCa-2 tumours): did not display a therapeutic effect

Molecule: pheophorbide a
- induction of autophagy (OSC-3 cells): induced autophagy

Molecule: CC(=O)c1cc2c(o1)C(=O)c1ccccc1C2=O [Napabucasin]
- PDI [1]: 0.101
- Size/diameter [1]: 110 nm
- Encapsulation efficiency [1]: 85%
- Drug-loading content [1]: 20%
- tumour growth (PCSC tumours): no antitumour effect

Molecule: CO/C1=C\C(C)=C\[C@@H](C)[C@@H](O)[C@@H](C)C/C(C)=C/C=C/[C@H](OC)[C@@H]([C@@H](C)[C@@H](O)[C@H](C)[C@@]2(O)C[C@@H](O)[C@H](C)[C@@H](C(C)C)O2)OC1=O [bafilomycin A1]
- LC3B-II and SQSTM1/p62 protein levels [6]: Such increases were also observed
